Experimental data published in article PMC7424068, “Design, Synthesis, and Biological Evaluation of Novel Thiazolidinone-Containing Quinoxaline-1,4-di-N-oxides as Antimycobacterial and Antifungal Agents” (Frontiers in Chemistry, 2020).
Converted amounts (≈) assume the structure as drawn. Read-outs that look alike come from different tables or passages of the source.

Legend:
Mtb H37Rv (ATCC27294) = assay: Antimycobacterial activity, microplate Alamar blue assay (MABA); type: cell-based, Mycobacterium tuberculosis; conditions: for antimycobacterial activity (in words): Mtb strain H37Rv; for MIC: Mycobacterium tuberculosis, Mtb H37Rv
VERO cell line = assay: Cytotoxicity MTT assay; type: cell-based; conditions: Chlorocebus sabaeus, cytotoxicity in VERO cells, 72 h
Experimental: VERO cells (2 × 10^4 cells) were seeded into 96-well plates and incubated for 12 h. Serial dilutions of the compounds were mixed with the cell suspension in the plates. Both treated cells and blank and solvent controls were incubated for 72 h, followed by incubation with MTT (0.5 mg/mL) for another 4 h. The microplates were measured at 570 nm using a multimode reader (Infinite M200, Tecan). The percentage of viable cells was calculated as the mean with respect to the controls set to 100%. Triplicate wells were analyzed for each concentration. IC50 was defined as the concentration that reduced the viable cells by 50% compared to the untreated control cells. It was considered significant when the SI was more than 10.

[1] = system: TB-infected macrophage model; assay: Macrophage assay (TB-infected macrophage model); type: cell-based, Mycobacterium tuberculosis; conditions: for EC90: Mycobacterium tuberculosis, Macrophage, 168 h, concentration causing 90% reduction in residual mycobacterial growth after 7 days; for EC99: concentration causing 99% reduction in residual mycobacterial growth after 7 days
C. albicans (ATCC90028) = assay: Antifungal activity, broth microdilution; type: cell-based, Candida albicans
Experimental: (§1) All synthesized compounds and the positive control drugs amphotericin B and ketoconazole were tested for their in vitro antifungal activity. Antifungal activity was evaluated against four fungi, C. albicans (ATCC90028), C. tropicalis (ATCC7349), A. fumigatus (3.5352), and C. neoformans (2.3201), by broth microdilution according to the protocols from the NCCLS (Jiang et al., [2014]). Briefly, all tested compounds were dissolved in DMSO, and the solutions were diluted with fresh broth medium. All of the fungi-seeded broth (1 × 10^5 colony-forming units [CFU]/mL) were prepared in RPMI 1640 medium and added into the serially diluted drug solution. The tubes were incubated at 28°C, and the MIC (μg/mL) was recorded 72–96 h post-incubation. Broth control (without fungi), growth controls (with fungi and without drug), solvent (DMSO) control, and drug control for both test drugs and standard drugs were set under identical conditions. The minimum drug concentration in the tubes in which no apparent growth of the organism was observed represented the MIC of the compounds.

A. fumigatus (3.5352) = assay: Antifungal activity, broth microdilution; type: cell-based; conditions: Aspergillus fumigatus
Experimental: as §1

C. neoformans (2.3201) = assay: Antifungal activity, broth microdilution; type: cell-based; conditions: Cryptococcus neoformans
Experimental: as §1

C. tropicalis (ATCC7349) = assay: Antifungal activity, broth microdilution; type: cell-based; conditions: Candida tropicalis
Experimental: as §1

[2] = system: Candida albicans, Candida tropicalis, Aspergillus fumigatus, and Cryptococcus neoformans; assay: Antifungal activity, broth microdilution, stated for the four fungi together; type: cell-based; conditions: read-out: MIC (antifungal, over the four fungi)
Experimental: as §1

[3] = system: M. tuberculosis (Mtb) strain H37Rv; set-up: method as in Ortega et al., 2001; Vicente et al., 2009; conditions: ref Ortega et al., 2001, Vicente et al., 2009; cited from earlier work
[4] = repeated in Table 5 for the 3D-QSAR models, read-out: MIC
[5] = experimental pMIC, Table 5, read-out: pMIC exp (converted)
[6] = Candida albicans ATCC 90028, read-out: MIC
[7] = A. fumigatus 3.5352, read-out: MIC
[8] = C. neoformans 2.3201, read-out: MIC
[9] = C. tropicalis ATCC 7349, read-out: MIC
[10] = C. albicans, C. tropicalis, A. fumigatus, C. neoformans together

SMILES	antimycobacterial activity (in words) (Mtb H37Rv (ATCC27294))	MIC (Mtb H37Rv (ATCC27294); MABA assay, read-out: MIC) [µg/mL]	MIC (Mtb H37Rv (ATCC27294); [4]) [µg/mL]	MIC (Mtb H37Rv (ATCC27294); [5]) [µM]	IC50 (VERO cell line) [µg/mL]	EC90 [1] [µg/mL]	EC99 [1] [µg/mL]	MIC (C. albicans (ATCC90028); [6]) [µg/mL]	MIC (A. fumigatus (3.5352); [7]) [µg/mL]	MIC (C. neoformans (2.3201); [8]) [µg/mL]	MIC (C. tropicalis (ATCC7349); [9]) [µg/mL]	MIC [2, 10] [µg/mL]	melting point [°C]	MIC [3] [µg/mL]	MIC (C. albicans (ATCC90028); Candida albicans) [µg/mL]	MIC (A. fumigatus (3.5352)) [µg/mL]	MIC (C. neoformans (2.3201)) [µg/mL]	MIC (C. tropicalis (ATCC7349)) [µg/mL]	MIC [2] [µg/mL]
O=C1CSC(c2c[n+]([O-])c3ccc(F)cc3[n+]2[O-])N1c1ccc(F)cc1 (stereo not drawn) [2t, 7-F-2-(3′-P-fluorophenyl-4′(5H)-thiazolidinone)-quinoxaline-1,4-di-N-oxide]	good antimycobacterial activity	1.56	1.56	4.16	101 (≈ 269 µM)	1.66 (≈ 4.42 µM)	5.25	4 (≈ 10.7 µM)	4 (≈ 10.7 µM)	4 (≈ 10.7 µM)	2 (≈ 5.33 µM)	2 to 4 (≈ 5.33 to 10.7 µM)	250 to 253						
O=C1CSC(c2c[n+]([O-])c3ccc(Cl)cc3[n+]2[O-])N1c1ccc(F)cc1 (stereo not drawn) [2y, 7-Cl-2-(3′-P-fluorophenyl-4′(5H)-thiazolidinone)-quinoxaline-1,4-di-N-oxide]	good antimycobacterial activity		1.56	3.99	107 (≈ 273 µM)	1.33 (≈ 3.39 µM)	4.58	2 (≈ 5.1 µM)	4 (≈ 10.2 µM)	2 (≈ 5.1 µM)	4 (≈ 10.2 µM)	2 to 4 (≈ 5.1 to 10.2 µM)	251 to 253						
Cc1ccc(N2C(=O)CSC2c2c[n+]([O-])c3ccc(Cl)cc3[n+]2[O-])cc1 (stereo not drawn) [2w, 7-Cl-2-(3′-P-methylphenyl-4′(5H)-thiazolidinone)-quinoxaline-1,4-di-N-oxide]		6.25	6.25	16.1	125 (≈ 323 µM)			8 (≈ 20.6 µM)	8 (≈ 20.6 µM)	4 (≈ 10.3 µM)	4 (≈ 10.3 µM)		250 to 252						
Cc1ccc2c(c1)[n+]([O-])c(C1SCC(=O)N1c1ccc(F)cc1)c[n+]2[O-] (stereo not drawn) [2j, 7-CH3-2-(3′-P-fluorophenyl-4′(5H)-thiazolidinone)-quinoxaline-1,4-di-N-oxide]	good antimycobacterial activity	6.25	6.25	16.9	114 (≈ 306 µM)			16 (≈ 43.1 µM)	32 (≈ 86.2 µM)	16 (≈ 43.1 µM)	8 (≈ 21.5 µM)		243 to 245						
O=C1CSC(c2c[n+]([O-])c3ccccc3[n+]2[O-])N1c1ccc(F)cc1 (stereo not drawn) [2d, 2-(3′-P-fluorophenyl-4′(5H)-thiazolidinone)-quinoxaline-1,4-di-N-oxide]	good antimycobacterial activity	3.13	3.13	8.77	123 (≈ 344 µM)			16 (≈ 44.8 µM)	32 (≈ 89.5 µM)	8 (≈ 22.4 µM)	8 (≈ 22.4 µM)		240 to 242						
O=C1CSC(c2c[n+]([O-])c3ccc(Cl)cc3[n+]2[O-])N1c1ccc(Cl)cc1 (stereo not drawn) [2z, 7-Cl-2-(3′-P-chlorophenyl-4′(5H)-thiazolidinone)-quinoxaline-1,4-di-N-oxide]	good antimycobacterial activity		1.56	3.85	94.6 (≈ 232 µM)	0.92 (≈ 2.25 µM)	3.93	4 (≈ 9.8 µM)	4 (≈ 9.8 µM)	4 (≈ 9.8 µM)	4 (≈ 9.8 µM)	2 to 4 (≈ 4.9 to 9.8 µM)	252 to 255						
O=C1CSC(c2c[n+]([O-])c3ccc(F)cc3[n+]2[O-])N1c1ccc(Cl)cc1 (stereo not drawn) [2u, 7-F-2-(3′-P-chlorophenyl-4′(5H)-thiazolidinone)-quinoxaline-1,4-di-N-oxide]	good antimycobacterial activity		1.56	3.99	91.2 (≈ 233 µM)	0.84 (≈ 2.14 µM)	3.27	4 (≈ 10.2 µM)	2 (≈ 5.1 µM)	4 (≈ 10.2 µM)	4 (≈ 10.2 µM)	2 to 4 (≈ 5.1 to 10.2 µM)	249 to 252						
C[C@@H]1[C@H](O)[C@@H](C)/C=C/C=C/C=C/C=C/C=C/C=C/C=C/[C@H](O[C@@H]2O[C@H](C)[C@@H](O)[C@H](N)[C@@H]2O)C[C@@H]2O[C@](O)(C[C@@H](O)C[C@@H](O)[C@H](O)CC[C@@H](O)C[C@@H](O)CC(=O)O[C@H]1C)C[C@H](O)[C@H]2C(=O)O [AMB, Amphotericin b, reference compound]								1 (≈ 1.08 µM)	0.5 (≈ 0.541 µM)	0.5 (≈ 0.541 µM)	2 (≈ 2.16 µM)	0.25 to 2 (≈ 0.271 to 2.16 µM)							
Cc1ccc2c(c1)[n+]([O-])c(C#N)c(-c1ccc(F)cc1)[n+]2[O-] [7-methyl-3-(4′-fluoro)phenylquinoxaline-2-carbonitrile-1,4-di-N-oxide]														< 0.2					
CC(=O)N1CCN(c2ccc(OCC3COC(Cn4ccnc4)(c4ccc(Cl)cc4Cl)O3)cc2)CC1 (stereo not drawn) [KCZ, Ketoconazole, reference compound]															0.25 (≈ 0.47 µM)	0.5 (≈ 0.941 µM)	0.25 (≈ 0.47 µM)	0.5 (≈ 0.941 µM)	0.25 to 2 (≈ 0.47 to 3.76 µM)
O=C1CSC(c2c[n+]([O-])c3ccccc3[n+]2[O-])N1c1ccc(Cl)cc1 (stereo not drawn) [2e, 2-(3′-P-chlorophenyl-4′(5H)-thiazolidinone)-quinoxaline-1,4-di-N-oxide]	good antimycobacterial activity	≤ 3.13	3.13	8.39	116 (≈ 310 µM)			8 (≈ 21.4 µM)	32 (≈ 85.6 µM)	16 (≈ 42.8 µM)	8 (≈ 21.4 µM)		249 to 252						
